Experimental data as given in the METLIN SMRT retention time set (Domingo-Almenara et al. 2019).

Experiment: gradient 5% acetonitrile 3 min, to 50% in 2 min, to 85% in 15 min, held 3 min, 100 µL/min
Conditions: column: Zorbax Extend-C18 2.1 x 50 mm; eluents: water / acetonitrile, 0.1% formic acid
How it was run: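 In both positive and negative ionization mode, a quadrupole time-of-flight mass spectrometer coupled to HPLC analyzed pure standards run in mixtures of ~100 molecules. The Zorbax Extend-C18 column (2.1 × 50 mm, 1.8 μm) was operated at 100 μL/min with water and acetonitrile, each containing 0.1% formic acid. The dead volume was 40 μL and the dwell volume 900 μL. Retention time came from adduct peaks that were computationally picked and individually inspected by hand.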

Row | Structure (SMILES) | RP-LC retention time [s]
1 | Cc1cnc(C2CN(C(=O)C3(c4ccccc4)CC3)C2)n1Cc1cccnc1 | 585
2 | COCc1nc2cccnc2n1C1CCN(C(=O)Nc2cc(C)cc(C)c2)CC1 | 747
3 | NCCc1noc(-c2ccccc2)n1 | 580
4 | Cc1noc(-c2nn(C)c3c2CN(C(=O)c2ccccc2Br)CC3)n1 | 725
5 | COc1ccccc1NC(=O)c1cn(CC2CCCO2)cc2c(=O)n(-c3ccccc3)nc1-2 (stereo not drawn) | 983
6 | COc1cc(OC)c(NC(=O)N2CCC(CN3CCCC(C)C3)CC2)cc1Cl (stereo not drawn) | 630
7 | CC(C)CNC(=O)N1C[C@@H]2CCCN3CCC[C@@H]([C@H]23)[C@H]1CCCC(=O)NCC1CC1 | 603
8 | CCn1ncn2cc(S(=O)(=O)NC(C)c3ccccc3)cc2c1=O (stereo not drawn) | 838
9 | COc1ccc(-c2ccnn2-c2ccc(SCc3ccccc3)nn2)cc1 | 1320
10 | O=C1COc2ccc(S(=O)(=O)N3CCCC3C(=O)Nc3ccc(F)c(Cl)c3)cc2N1 (stereo not drawn) | 845
11 | Cc1c(C2CCN(C(=O)c3ccco3)CC2)noc1N | 620
12 | Cc1ccccc1-c1noc(CN2C(=O)COc3cc(Cl)ccc32)n1 | 1150
13 | CC(=O)Nc1ccc(-c2cc(C(=O)N3CCN(c4ccccn4)CC3)c3ccccc3n2)cc1 | 609
14 | Cc1nc(Cn2cccc2C(=O)Nc2ccc(Cl)cc2)no1 | 899
15 | CCCCC(=O)Nc1ccc2nc(N3CCN(c4cccc(C)c4)CC3)cc(C(=O)O)c2c1 | 722
16 | Cc1ccnc(N2CCCC(C(=O)NCCN3CCN(c4ccccc4F)CC3)C2)n1 (stereo not drawn) | 614
17 | COc1ccc(C2(c3nc(-c4ccc5oc(C)nc5c4)no3)CC2)cc1 | 651
18 | Cc1ccc(-n2c(N3CCCC(C(=O)Nc4ccc(F)cc4)C3)nc3ccsc3c2=O)cc1 (stereo not drawn) | 959
19 | COCCCNC(=O)N1CCCC1c1ccccc1Cl (stereo not drawn) | 797
20 | CN1CCCC1c1nc(C2CN(S(=O)(=O)Cc3ccccc3F)C2)no1 (stereo not drawn) | 626
21 | Cc1cc2c(N3CCCC(C(=O)NCc4ccc(N5CCC(C)CC5)cc4)C3)nccc2s1 (stereo not drawn) | 592
22 | Cc1ccc(S(=O)(=O)Nc2ccc(-c3cn4ccc(C)nc4n3)cc2)c(C)c1 | 679

Row | Structure (SMILES) | RP-LC retention time [s]
23 | CCc1ccc(S(=O)(=O)N2CCC(C(=O)NCCc3csc(-c4cccs4)n3)CC2)cc1 | 1000
24 | O=C1NCN(c2ccccc2)C12CCN(CC1COc3ccccc3O1)CC2 (stereo not drawn) | 736
25 | O=c1c2ccccc2n(Cc2nc(-c3cccc(Cl)c3)no2)c(=O)n1CC1CCCO1 (stereo not drawn) | 1110
26 | Cc1noc(-c2cccc(OC3CN(C(=O)c4ccoc4)C3)c2)n1 | 787
27 | O=S(=O)(NCc1cccnc1)c1ccc(Cl)c(-c2nnc(-c3ccccc3)o2)c1 | 707
28 | COCc1c(C(=O)O)nnn1Cc1ccc(OC)c(F)c1 | 658
29 | COc1ccc(-n2c(CN3CCN(C(=O)NC(C)C)CC3)nc3cccnc32)cc1 | 595
30 | Cn1cccc1-c1cc2n(n1)CCC(=O)N2CCCC(=O)NCCCc1ccccc1 | 833
31 | O=C(c1ccsc1)N1CCC(c2nncn2Cc2ccccc2)CC1 | 663
32 | COc1ccccc1N1CCN(c2nc3c(c(Nc4ccccc4)n2)C(=O)CCC3)CC1 | 1270
33 | CC(C)c1ccc(NC(=O)C(=O)NC2CC(C)(C)NC(C)(C)C2)cc1 | 712
34 | Cc1ccc(S(=O)(=O)NCCc2nc(-c3cccc(-c4ccnn4C)c3)no2)cc1 | 917
35 | Cc1ccccc1NC(=O)N1C[C@@H]2C[C@H](NC(=O)c3cccs3)[C@H]1C2 | 706
36 | COc1c(C(=O)NCc2ccc(C)o2)sc2cc(Cl)ccc12 | 1120
37 | CSc1nc2ccc(NS(=O)(=O)c3ccc(Br)s3)cc2s1 | 994
38 | COCC(=O)N1CCC2(CC1)NCc1ccccc1-n1ccnc12 | 548
39 | COCCCN(CC(=O)N1CCNCC1)C(=O)c1ccc(Br)cc1 | 603
40 | CCOc1ccc2nc(C(=O)Nc3ccc(N4CCOCC4)cc3)cn2n1 | 767
41 | CCN1CCCn2cc(S(=O)(=O)N3CCN(c4ccccc4Cl)CC3)cc2C1=O | 912
42 | COC(=O)c1ccc(-c2nc3cnccn3c2Nc2ccc3c(c2)OCCO3)cc1 | 813
43 | Cc1ccc(S(=O)(=O)N2CCC(n3cnnc3C)CC2)cc1Cl | 736
44 | O=C(c1ccc(Nc2nn3c(=O)c4ccccc4nc3s2)cc1)N1CCN(c2ccccn2)CC1 | 622

Row | Structure (SMILES) | RP-LC retention time [s]
45 | Cc1ccc2cc(CCC(=O)NCc3nc4ccccc4n3C)c(=O)[nH]c2c1 | 617
46 | CC(C)OCCCNC(=O)C1CCCN(c2ccc(-c3ccccc3)nn2)C1 (stereo not drawn) | 683
47 | O=C1C2ON(c3ccccc3)C(c3ccccn3)C2C(=O)N1c1cccc(C(F)(F)F)c1 (stereo not drawn) | 994
48 | COc1ccccc1-c1noc(C2CCCN2C(=O)C2CCC2)n1 (stereo not drawn) | 831
49 | Cc1nc2c(c(C)nn2C(C)(C)C)c(C)c1CCC(=O)N1CCN(c2ccccn2)CC1 | 731
50 | CCOc1ccc(CN2C[C@@H]3C(=O)N(CCCN4CCCC4=O)C(=O)[C@@H]3C2)cc1 | 610
51 | NC(=O)C1CCN(C(=O)CCn2cnc3cc(S(=O)(=O)N4CCCC4)ccc32)CC1 | 577
52 | O=C(Nc1ccc(Nc2ccncc2)cc1)c1ccc([N+](=O)[O-])cc1 | 1250
53 | Cc1ccc(NC(=O)CSc2nc(N3CCCCC3)nc3ccccc23)cc1Cl | 852
54 | COc1ccc(Cl)cc1-c1nc(C2CC(=O)N(c3ccc(F)cc3)C2)no1 (stereo not drawn) | 1030
55 | Cc1cc(N2CCCC2)n2nc(CN3CCN(c4cccc(Cl)c4)CC3)nc2n1 | 663
56 | Cc1nn(CC(=O)NCc2cccnc2)c(=O)c2nc(-c3ccccc3)sc12 | 614
57 | Cc1nncn1C1CCN(S(=O)(=O)c2ccccc2F)CC1 | 654
58 | CCOc1cccc(-c2noc(Cn3c(=O)n(-c4ccc(C)cc4)c(=O)c4sccc43)n2)c1 | 1090
59 | Cc1ccc(CNC(=O)C2CCN(S(=O)(=O)c3cc(-c4noc(C)n4)sc3C)CC2)o1 | 906
60 | O=C(CCCN1CCC2(CC1)C(=O)NCN2c1ccccc1)c1ccc(F)cc1 | 725
61 | Cc1nc(-c2csc(S(=O)(=O)N3CCC(C(=O)Nc4ccc5c(c4)OCCO5)CC3)c2)no1 | 868
62 | CCC(=O)N1CCc2cc(N3CC(C(=O)Nc4cccc(C)c4)CC3=O)ccc21 (stereo not drawn) | 693
63 | CCOc1ccccc1C(=O)Nc1ccc2c(c1)N(CCOC)CCC2 | 1060
64 | CCN1C(=O)c2cccnc2Sc2cc(NC(=O)c3ccccc3C)ccc21 | 833
65 | O=C(c1ccccc1)N1CCCC1c1nc(-c2ccccc2Cl)no1 (stereo not drawn) | 978
66 | CC(C)(C)c1ccc(C(=O)Nc2cnc(N3CCOCC3)nc2)cc1 | 923

Row | Structure (SMILES) | RP-LC retention time [s]
67 | Cc1cccc(NC(=O)Cn2cnc3nc(N4CCC(C(=O)NC5CC5)CC4)sc3c2=O)c1C | 693
68 | CC(C)Oc1ccccc1Cn1c(=O)oc2ccccc21 | 1010
69 | Cc1nc2c(sc3nc(-c4ccccc4)ccc32)c(=O)n1CC(=O)Nc1ccc(F)cc1Cl | 1090
70 | O=C(NCC1CCCO1)C1CCN(c2nnc(-c3ccccc3)o2)CC1 (stereo not drawn) | 649
71 | CCc1ccc(-c2cn3cc(C(=O)NCCN4CCN(C)CC4)ccc3n2)cc1 | 573
72 | COc1ccc(-c2ncc3c(n2)CCN(C(=O)c2cc(F)ccc2Cl)C3)cc1 | 966
73 | COc1ccc(-c2nn3c(-c4ccc5ccccc5n4)nnc3s2)cc1OC | 886
74 | CC1Oc2ccc(-c3csc(NC(=O)C(C)(C)C)n3)cc2N(C)C1=O (stereo not drawn) | 963
75 | COc1cccc(NC(=O)C2CCCCN2S(=O)(=O)c2ccc(F)cc2)c1 (stereo not drawn) | 1000
76 | CCc1nc2c(=O)n(CC(=O)N(CC)Cc3ccccc3)nc(C)c2s1 | 740
77 | CNC(=O)C1CCCN(c2nc3ncn(CC(=O)Nc4ccc(F)cc4Cl)c(=O)c3s2)C1 (stereo not drawn) | 650
78 | c1ccc(CNc2c(-c3ccc4c(c3)OCCO4)nc3ncccn23)cc1 | 710
79 | CCC(C)n1c(=O)c2ccccc2n(Cc2nc(-c3ccc(Br)cc3)no2)c1=O (stereo not drawn) | 1320
80 | COc1cc(C(=O)Nc2cccc(-c3cn4cccnc4n3)c2)cc(OC)c1OC | 642
81 | Cc1nc(-c2noc(-c3ccccc3)n2)cn1CC(=O)NCc1ccccc1 | 810
82 | COc1ccc(CCC(=O)Nc2cnn(-c3ncc(N(C)C)cn3)c2)cc1 | 737
83 | Cc1ccsc1C(=O)N1CCC2(CC1)CC(OCC1CC1)CCO2 (stereo not drawn) | 851
84 | CCOc1ccc(CC(=O)NC2CCN(c3cc(-c4ccc(F)cc4)[nH]n3)C2)cc1OCC (stereo not drawn) | 679
85 | CCCn1cc(S(=O)(=O)Nc2cccc(C)c2)c2cccnc21 | 845
86 | CCCc1noc(-c2ccc3nnc(CC(=O)Nc4ccc(Cl)cc4)n3c2)n1 | 937
87 | Cc1cccc(CNC(=O)c2nnc(-c3ccc(S(=O)(=O)N(C)C)cc3)o2)c1 | 894
88 | Cc1nn(-c2ccccc2)c(C)c1S(=O)(=O)N1CCC(C(=O)Nc2cccc(Cl)c2C)CC1 | 1000
